What was measured:
mushroom tyrosinase = test: Mushroom tyrosinase activity assay (L-tyrosine as substrate); format: biochemical; details: mushroom tyrosinase, means ± SEMs of triplicate determinations
Description: 2.2. […] In brief, 20 µL of an aqueous mushroom tyrosinase solution (1000 units/mL) and 170 µL of a substrate mixture containing 345 µM of L-tyrosine and 17.2 mM of sodium phosphate buffer (pH 6.5) were added to wells of a 96-well microplate. […] Amounts of dopachrome produced were assessed by measuring optical densities at 475 nm using a microplate reader (VersaMax®, Molecular Devices, Sunnyvale, CA, USA). […] Experiments were independently conducted three times.

[1] = ABTS cation radical scavenging activity assay; details: test sample 100 µM, 2 min in the dark
Description: 2.12. ABTS Cation Radical Scavenging Activity Assay
The free radical scavenging activities of analogs 1–8 and Trolox were determined using an ABTS radical cation decolorization assay (SEJIN CI Co., Seoul, Korea), as previously described with minor modification. Trolox was used as the positive control. ABTS radicals were produced by adding 10 mL of 7 mM ABTS in distilled water to 10 mL of 2.45 mM aqueous potassium persulfate solution. The mixture was kept in the dark for 12–16 h at RT until the reaction was complete and absorbance had stabilized. The prepared free radical solution was then diluted with methyl alcohol so that the optical density at 734 nm was 0.70 ± 0.02. Test samples (10 µL, final concentration at 100 µM) dissolved in EtOH/DMSO (9:1 v/v) were added to the diluted free radical solution (90 µL) in a 96-well plate. After standing at RT for 2 min in the dark, well absorbances were measured at 734 nm, and ABTS radical scavenging activities were calculated using the following formula:ABTS free radical scavenging activity (%) = (Ac − As) × 100/Ac(2) where Ac indicates the absorbance of the non-treated control, and As indicates the absorbances of test samples. Experiments were conducted independently 3 times.
The ABTS (2,2′-azino-bis(3-ethylbenzothiazoline-6-sulfonic acid)) cation radical scavenging assay is also commonly used to evaluate antioxidant effects. ABTS is converted to the ABTS radical cation by the transfer of one electron to potassium persulfate. Trolox was used as the positive control, and assays were performed at a test sample (analogs 1–8 and Trolox) concentration of 100 µM. The ABTS radical solution obtained by a reaction of ABTS with potassium persulfate was mixed with test samples and left in the dark for 2 min. ABTS radical scavenging abilities were evaluated by measuring absorbances at 734 nm. […] On the other hand, analog 1 with a 4-hydroxyphenyl group, and analogs 7 and 8 with bromo substituents on the β-phenyl ring weakly scavenged the ABTS radical (16.6–24.8% scavenging). […] Furthermore, the results for ABTS and DPPH radical scavenging activities were similar.

B16F10 cells = test: Melanin content analysis in α–MSH plus IBMX stimulated B16F10 cells; format: cell-based, murine; details: α–MSH/IBMX stimulated (3.5-fold), 20 µM, 72 h
Description: 2.10. Melanin Content Analysis Melanin content assays were performed to determine the effects of analog 3 on cellular melanin formation, as previously described with minor modification. […] Briefly, cultured B16F10 cells were seeded in 6-well culture plates at 1 × 10^4 cells/well and incubated for 12 h under culture conditions to allow them to adhere to well bottoms. […] Cells were then washed twice with PBS and detached from wells by incubation with Trypsin/EDTA. After centrifugation, detached cell pellets were dissolved in 1N–NaOH solution (100 µL), incubated for 1 h at 60 °C, and mixed to solubilize melanin released by cells. The ability of analog 3 to inhibit melanin production was determined by measuring well optical densities (ODs) at 405 nm using a microplate reader (VersaMax®, Molecular Devices, Sunnyvale, CA, USA). Melanin contents were calculated by dividing the ODs of samples by the control OD. Experiments were conducted independently 3 times. […] Thus, B16F10 cells were treated with analog 3 (0, 5, 10, or 20 µM) for 1 h and then stimulated with α–MSH (1 µM) plus IBMX (200 µM) for 72 h. Melanin contents were assessed by measuring optical densities at 405 nm.

[2] = ROS scavenging activity assay (DCFH-DA/esterase, SIN-1); details: SIN–1 10 µM; 5, 10, 20 µM
Description: 2.13. ROS Scavenging Activity Assay
The ROS scavenging activities of analogs 1–8 and Troloxwere determined as previously described by Ali et al. and Lebel and Bondy. Briefly, 2.5 mM DCFH-DA (2’,7’-dichlorodihydrofluorescein diacetate) (Molecular Probes, Eugene, OR, USA) solution was mixed with esterase (1.5 units/mL) in 50 mM phosphate buffer (pH 7.4), held for 30 min at 37 °C, and keep on ice in the dark until required. Tested compounds (10 µL; final concentrations: 5, 10, and 20 µM) dissolved in DMSO and SIN-1 (3-morpholinosydnonimine) (10 µM) and 180 µL of phosphate buffer in the wells of a black 96-well plate for 30 min. The 50 µL of DCFH-DA-esterase mixture (20 µM) was added. Fluorescence intensities of oxidized DCFH (DCF or 2′,7′-dichlorofluorescein) were measured using a microplate reader (Berthold Advances GmbH & Co., Bad Wildbad, Germany) with excitation and emission wavelengths of 485 and 530 nm, respectively. Trolox was used as the reference control.
Since it has been reported that reactive oxygen species (ROS) are concerned in the regulation of melanogenesis, we examined the ROS scavenging activities of analogs 1–8 using DCFH-DA (2′,7′-dichlorodihydrofluorescein diacetate) and esterase. Trolox and SIN–1 (3-morpholinosydnonimine) were used as the positive control and a ROS generator, respectively. Hydrolysis of DCFA-DA by esterase generates DCFH (2′,7′-dichlorodihydrofluorescein), which reacts with ROS generated by SIN–1 to produce the fluorescent compound DCF (2′,7′-dichlorofluorescein). Thus, ROS scavenging activities of analogs were assessed by measuring DCF fluorescence. […] Test samples including Trolox were treated at three different concentrations (5, 10, or 20 µM).

[3] = DPPH radical scavenging activity assay; details: test sample 500 µM, DPPH 0.18 mM, 30 min in the dark
Description: 2.11. DPPH Radical Scavenging Activity Assay
The DPPH radical scavenging activities of analogs 1–8 were investigated as previously described with minor modification. L-Ascorbic acid was used as a positive control. In brief, 20 µL of analogs (5 mM) in DMSO or 5 mM L-ascorbic acid in distilled water were mixed with 180 µL of 0.2 mM DPPH in methanol in a 96-well microplate. After the microplate had been stored in the dark for 30 min, optical densities (ODs) were measured at 517 nm using a microplate reader (VersaMax®, Molecular Devices, Sunnyvale, CA, USA). DPPH radical scavenging activities were determined using the following formula:DPPH radical scavenging activity (%) = 100 × (Ac − As)/Ac(1) where Ac indicates the optical density of the non-treated control and As indicates the optical density of test sample. Experiments were conducted independently 3 times.
There is a possibility that compounds with antioxidant properties inhibit the oxidations of tyrosinase substrates, such as L-tyrosine and L-dopa, without interacting with the tyrosinase. Melanin production requires many oxidative processes, including the conversion of L-tyrosine to dopaquinone via L-dopa. Therefore, compounds with antioxidant activity have the potential to inhibit melanogenesis. DPPH (2,2-diphenyl-1-picrylhydrazyl) contains a free radical, and DPPH assays are commonly used to assess antioxidant activity. In this experiment, L-ascorbic acid (an antioxidant) was used as a positive control. The assay was conducted at a test sample and L-ascorbic acid concentration of 500 µM and a DPPH concentration of 0.18 mM. After standing test sample/DPPH mixtures for 30 min in the dark, optical densities were measured to evaluate radical scavenging activities.

[4] = Peroxynitrite (ONOO−) scavenging activity assay (DHR 123, SIN-1); details: SIN–1 10 µM; 5, 10, 20 µM
Description: 2.14. Peroxynitrite (ONOO^−) Scavenging Activity Assay
Peroxynitrite-scavenging activities were determined as described by Kooy et al. with modification. This method monitors the fluorescence of rhodamine 123, which is formed rapidly when non-fluorescent DHR 123 (dihydrorhodamine 123) (Molecular Probes, Eugene, OR, USA) in the presence of peroxynitrite. The rhodamine buffer solution (pH 7.4) included of 50 mM sodium phosphate, 90 mM sodium chloride, 5 mM potassium chloride, and 100 µM DTPA. The final concentration of DHR 123 was 5 µM. In this assay, the buffer solution was prepared prior to use and then stood on ice. Test compounds (10 µL, final concentrations: 5, 10, and 20 µM) dissolved in DMSO and added to 10 µL SIN-1 (10 µM) and 180 µL rhodamine buffer solution in the wells of a black 96-well plate. Fluorescence intensities of oxidized DHR 123 were measured using a fluorescence plate reader (Berthold Advances GmbH & Co., Bad Wildbad, Germany) with an excitation and emission wavelengths of 485 and 535 nm, respectively. Peroxynitrite scavenging activity was calculated after subtracting background fluorescence from final fluorescence intensity. Results are expressed as means ± standard deviation (SD), and L-penicillamine was used as a positive control.
Several RNS (reactive nitrogen species), including peroxynitrite (ONOO^–) and nitric oxide, are known to be involved in the induction of the melanogenesis. Therefore, we investigated the effects of analogs 1–8 on peroxynitrite scavenging activity using DHR123 (dihydrorhodamine) as a ROS indicator and SIN–1 as an RNS generator. Peroxynitrite generated by SIN–1 oxidizes DHR123 to rhodamine 123, a fluorescent compound. Thus, the effects of analogs on peroxynitrite scavenging ability were determined by measuring rhodamine 123 fluorescence.

SMILES	IC50 (mushroom tyrosinase) [µM]	ABTS radical scavenging activity [1]	also measured
O=C1/C(=C/c2cc(Br)c(O)c(Br)c2)SC(=S)N1C1CCCCC1 [Analog 8, (Z)-3-Cyclohexyl-5-(3,5-dibromo-4-hydroxybenzylidene)-2-thioxothiazolidin-4-one]	> 200	16.6–24.8%	–
O=c1cc(CO)occ1O [kojic acid, reference compound]	–	–	melanin contents versus non-treated controls (B16F10 cells): 3.0 fold
O=C1/C(=C/c2ccc(O)cc2)SC(=S)N1C1CCCCC1 [Analog 1, (Z)-3-Cyclohexyl-5-(4-hydroxybenzylidene)-2-thioxothiazolidin-4-one]	65.4 ± 7.82	16.6–24.8%	ROS scavenging [2]: significantly and concentration-dependently scavenged ROS
COc1ccc(/C=C2\SC(=S)N(C3CCCCC3)C2=O)cc1O [Analog 5, (Z)-3-Cyclohexyl-5-(3-hydroxy-4-methoxybenzylidene)-2-thioxothiazolidin-4-one]	55 ± 11.9	43.5%	–
COc1cc(/C=C2\SC(=S)N(C3CCCCC3)C2=O)ccc1O [Analog 4, (Z)-3-Cyclohexyl-5-(4-hydroxy-3-methoxybenzylidene)-2-thioxothiazolidin-4-one]	> 200	57.7%	DPPH radical scavenging activity [3]: 72%
Cc1c(C)c2c(c(C)c1O)CCC(C)(C(=O)O)O2 (stereo not shown) [Trolox, reference compound]	–	79.8%	ROS scavenging [2]: significantly and concentration-dependently scavenged ROS
O=C1/C(=C/c2ccc(O)c(Br)c2)SC(=S)N1C1CCCCC1 [Analog 7, (Z)-5-(3-Bromo-4-hydroxybenzylidene)-3-cyclohexyl-2-thioxothiazolidin-4-one]	66.2 ± 9.44	16.6–24.8%	–
COc1cc(/C=C2\SC(=S)N(C3CCCCC3)C2=O)cc(OC)c1O [Analog 6, (Z)-3-Cyclohexyl-5-(4-hydroxy-3,5-dimethoxybenzylidene)-2-thioxothiazolidin-4-one]	> 200	46.9%	peroxynitrite scavenging compared with penicillamine [4]: more potently than penicillamine
CC(C)(S)C(N)C(=O)O (stereo in doubt) [penicillamine, L-penicillamine, reference compound]	–	–	peroxynitrite scavenging [4]: significantly and concentration-dependently reduced
